Here are results for eleven compounds from patent US6841566B2, “Viral polymerase inhibitors” (Boehringer Ingelheim, Ltd., priority 2001, dated 2005).

The subject of the assay is Huh7 cells that stably maintain a subgenomic HCV replicon (S22.3 cell-line). The assay can be described thus: Cell based HCV RNA replication assay (S22.3 replicon cells, real-time RT-PCR). The conditions noted are these: Hepatitis C virus, Huh-7, 72 hours. The protocol: Huh7 cells that stably maintain a subgenomic HCV replicon were established as previously described (Lohman et al., 1999. Science 285: 110-113) and designated as the S22.3 cell-line. S22.3 cells were maintained in Dulbecco's Modified […] Medium (DMEM) supplemented with 10% FBS and 0.5 mg/mL neomycin (Standard Medium). During the assay, DMEM medium supplemented with 10% FBS, containing 0.5% DMSO and lacking neomycin was used (Assay Medium). 16 hours prior to compound addition, S22.3 cells are trypsinized and diluted to 100 000 cells/ml in Standard Medium. 100μL (10 000 cells) are distributed into each well of a 96-well plate. The plate was then incubated at 37° C. with 5% CO2 until the next day.
10 μL of test compound (in 100% DMSO) was added to 2 ml of Assay Medium for a final DMSO concentration of 0.5% and the solution was sonicated for 15 min and filtered through a […] Millipore Filter Unit. 900 μl was transferred into row A of a Polypropylene Deep-Well Titer Plate. Rows B to H, contain 400 μL aliquots of Assay Medium (containing 0.5% DMSO), and were used to prepare serial dilutions (1/2) by transferring 400 μl from row to row (no compound was included in row H).
Cell culture medium was aspirated from the 96-well plate containing the S22.3 cells. 175 μL of assay medium with the appropriate dilution of test compound was transferred from each well of the compound plate to the corresponding well of the cell culture plate (row H was used as the “No inhibition control”). The cell culture plate was incubated at 37° C. with 5% CO2 for 72 hours.
Following the 72 hour incubation period, the total cellular RNA was extracted from the S22.3 cells of the 96-well plate using the RNeasy 96 kit (Qiagen®, RNeasy Handbook. 1999.). Briefly, assay medium was completely removed from cells and 100 μL of RLT buffer (Qiagen®) containing 143 mM β-mercaptoethanol was added to each well of the 96-well cell-culture plate. The microplate was gently shaken for 20 sec. 100 μL of 70% ethanol was then added to each microplate well, and mixed by pipetting. The lysate was removed and applied to the wells of a RNeasy 96 (Qiagen®) plate that was placed on top of a Qiagen® Square-Well Block. The RNeasy 96 plate was sealed with tape and the Square-Well Block with the RNeasy 96 plate was loaded into the holder and placed in a rotor bucket of a 4K15C centrifuge. The sample was centrifuged at 6000 rpm (˜5600×g) for 4 min at room temperature. The tape was removed from the plate and 0.8 ml of Buffer RW1 (Qiagen® RNeasy 96 kit) was added to each well of the RNeasy 96 plate. The RNeasy 96 plate was sealed with a new piece of tape and centrifuged at 6000 rpm for 4 min at room temperature. The RNeasy 96 plate was placed on top of another clean Square-Well Block, the tape removed and 0.8 ml of Buffer RPE (Qiagen® RNeasy 96 kit) was added to each well of the RNeasy 96 plate. The RNeasy 96 plate was sealed with a new piece of tape and centrifuged at 6000 rpm for 4 min at room temperature. The tape was removed and another 0.8 ml of Buffer RPE (Qiagen® RNeasy 96 kit) was added to each well of the RNeasy 96 plate. The RNeasy 96 plate was sealed with a new piece of tape and centrifuged at 6000 rpm for 10 min at room temperature. Tape was removed, the RNeasy 96 plate was placed on top of a rack containing 1.2-mL collection microtubes. The RNA was eluted by adding 50 μL of RNase-free water to each well, sealing plate with a new piece of tape and incubated for 1 min at room temperature. The plate was then centrifuged at 6000 rpm for 4 min at room temperature. The elution step was repeated with a second volume of 50 μl RNase-free water. The microtubes with total cellular RNA are stored at −70° C.
RNA was quantified on the STORM® system (Molecular Dynamics®) using the RiboGreen® RNA Quantification Kit (Molecular Probes®). Briefly, the RiboGreen reagent was diluted 200-fold in TE (10 mM Tris-HCl pH=7.5, 1 mM EDTA). Generally, 50 μL of reagent was diluted in 10 mL TE. […]

The compound `Cn1c(C(=O)O)cc2cc(NC(=O)C3(NC(=O)c4ccc5c(c4)nc(-c4ccoc4)n5C4CCCCC4)CCCC3)ccc21` [compound 1077] registered a 50% effective concentration (EC50) of no more than 5 µM.
Next, `C[C@@H](NC(=O)c1ccc2c(c1)nc(-c1ccc[nH]1)n2C1CCCCC1)C(=O)Nc1ccc(/C=C/C(=O)O)cc1` [compound 2004]: 5 to 50 µM; `O=C(O)C=Cc1ccc(NC(=O)C2(NC(=O)c3ccc4c(c3)nc(-c3ccco3)n4C3CC4CCC3C4)CCCC2)cc1` (mixture of isomers) [compound 2017]: no more than 5 µM; `Cc1oc(-c2cccc(NC(=O)[C@@H](C)NC(=O)c3ccc4c(c3)nc(-c3ccoc3)n4C3CCCCC3)c2)cc1C(=O)O` [compound 1074]: no more than 5 µM.
On to `O=C(O)/C=C/c1ccc(NC(=O)C2(NC(=O)c3ccc4c(c3)nc(-c3ccsc3)n4C3CCCCC3)CCCC2)cc1` [compound 2001], for which the EC50 is no more than 5 µM.
Next, `CC1CCCCC1n1c(-c2ccoc2)nc2cc(C(=O)NC3(C(=O)Nc4ccc(C=CC(=O)O)cc4)CCCC3)ccc21` (centres unmarked) [compound 2045]: no more than 5 µM.
In turn, `O=C(O)/C=C/c1ccc(NC(=O)C2(NC(=O)c3ccc4c(c3)nc(-c3ccoc3)n4C3CCCCC3)CCNCC2)cc1` [compound 1100] registered an EC50 of no more than 5 µM.
For `CC1CCCC(C)C1n1c(-c2ccco2)nc2cc(C(=O)NC3(C(=O)Nc4ccc(C=CC(=O)O)cc4)CCCC3)ccc21` (mixture of isomers) [compound 2033] the value was no more than 5 µM; for `CC(C)(C)OC(=O)N1CCC(NC(=O)c2ccc3c(c2)nc(-c2ccoc2)n3C2CCCCC2)(C(=O)Nc2ccc(/C=C/C(=O)O)cc2)CC1` [compound 1089], no more than 5 µM.
For `CC[C@@H](NC(=O)c1ccc2c(c1)nc(-c1ccoc1)n2C1CCCCC1)C(=O)Nc1ccc(/C=C/C(=O)O)cc1` [compound 1075, (E)-3-[4-((R)-2-{[1-(1-Cyclohexyl-2-furan-3-yl-1H-benzoimidazol-5-yl)-methanoyl]-amino}-butanoylamino)-phenyl]-acrylic acid] the value was 5 to 50 µM; for `O=C(O)/C=C/c1ccc(NC(=O)C2(NC(=O)c3ccc4c(c3)nc(-c3ccc[nH]3)n4C3CCCCC3)CCCC2)cc1` [compound 2007], no more than 5 µM.

Broadly, the EC50 is the concentration needed to bring the measured effect to its halfway point. A low value points to higher potency in that assay.
